From patent US20260365646A1, “AKT1 MODULATORS” (Alterome Therapeutics, Inc., priority 2022, published 2026)

target: T1, full length AKT E17K (Homo sapiens, UniProt P31749, E17K); experiment: NanoBRET Target Engagement (TE) Intracellular Kinase Assay; type: cell-based; settings: not given
T1 construct: host or cells: HEK-293 (ATCC CRL-1573)
Method in brief: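 Live-cell BRET assay: cells expressing NanoLuc-fused full-length AKT E17K incubated 2 h with tracer at target-optimized concentration plus compound. BRET read at 450 nm donor/600 nm acceptor with extracellular NanoLuc inhibitor. EC50 from sigmoidal variable-slope fit of tracer displacement.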

T1 sequence (P31749 whole entry E17K): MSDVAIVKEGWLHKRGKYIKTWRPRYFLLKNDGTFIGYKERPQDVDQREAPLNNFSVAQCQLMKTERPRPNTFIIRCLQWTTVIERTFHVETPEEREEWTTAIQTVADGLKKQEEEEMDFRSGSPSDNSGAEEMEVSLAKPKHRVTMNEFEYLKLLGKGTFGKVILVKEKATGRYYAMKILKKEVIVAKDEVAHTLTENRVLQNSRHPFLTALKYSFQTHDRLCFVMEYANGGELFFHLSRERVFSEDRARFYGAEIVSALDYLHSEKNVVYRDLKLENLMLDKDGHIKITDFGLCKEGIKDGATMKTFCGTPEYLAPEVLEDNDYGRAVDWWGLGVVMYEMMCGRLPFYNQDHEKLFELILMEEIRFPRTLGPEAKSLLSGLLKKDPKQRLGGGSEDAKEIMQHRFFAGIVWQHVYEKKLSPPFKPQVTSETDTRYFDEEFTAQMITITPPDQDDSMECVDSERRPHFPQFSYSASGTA

Row | Compound | EC50 [nM]
1 | COc1c(N2CCCC3(CN(Cc4ccc(-n5c(-c6cccnc6N)nc6ccc(-c7ccccc7)nc65)cc4)C3)C2)c(=O)c1=O [Example 65, 3-(2-(4-(2-(2-aminopyridin-3-yl)-5-phenyl-3H-imidazo[4,5-b]pyridin-3-yl)benzyl)-2,6-diazaspiro[3.5]nonan-6-yl)-4-methoxycyclobut-3-ene-1,2-dione] | 60 to 600
2 | COc1c(N2[C@H](C)CN(Cc3ccc(-n4c(-c5cccnc5N)nc5ccc(-c6ccccc6)nc54)cc3)C[C@@H]2C)c(=O)c1=O [Example 68, 3-((2S,6R)-4-(4-(2-(2-aminopyridin-3-yl)-5-phenyl-3H-imidazo[4,5-b]pyridin-3-yl)benzyl)-2,6-dimethylpiperazin-1-yl)-4-methoxycyclobut-3-ene-1,2-dione] | 60 to 600
3 | COc1c(N2[C@H](C)CN(Cc3ccc(-n4c(-c5cccnc5N)nc5ccc(-c6ccccc6)nc54)cc3)C[C@H]2C)c(=O)c1=O [Example 69, 3-((2R,6R)-4-(4-(2-(2-aminopyridin-3-yl)-5-phenyl-3H-imidazo[4,5-b]pyridin-3-yl)benzyl)-2,6-dimethylpiperazin-1-yl)-4-methoxycyclobut-3-ene-1,2-dione] | 60 to 600
4 | COc1c(N2[C@@H](C)CN(Cc3ccc(-n4c(-c5cccnc5N)nc5ccc(-c6ccccc6)nc54)cc3)C[C@@H]2C)c(=O)c1=O [Example 70, 3-((2S,6S)-4-(4-(2-(2-aminopyridin-3-yl)-5-phenyl-3H-imidazo[4,5-b]pyridin-3-yl)benzyl)-2,6-dimethylpiperazin-1-yl)-4-methoxycyclobut-3-ene-1,2-dione] | 60 to 600
5 | COc1c(N2CCC(NCc3ccc(-n4c(-c5cccnc5N)nc5ccc(-c6ccccc6)nc54)cc3)CC2)c(=O)c1=O [Example 77, 3-(4-((4-(2-(2-aminopyridin-3-yl)-5-phenyl-3H-imidazo[4,5-b]pyridin-3-yl)benzyl)amino)piperidin-1-yl)-4-methoxycyclobut-3-ene-1,2-dione] | 15 to 60
6 | COc1c(N2C[C@H]3CN(Cc4ccc(-n5c(-c6cccnc6N)nc6ccc(-c7ccccc7)nc65)cc4)C[C@H]3C2)c(=O)c1=O [Example 86, 3-((3aR,6aS)-5-(4-(2-(2-aminopyridin-3-yl)-5-phenyl-3H-imidazo[4,5-b]pyridin-3-yl)benzyl)hexahydropyrrolo[3,4-c]pyrrol-2(1H)-yl)-4-methoxycyclobut-3-ene-1,2-dione] | 15 to 60

The remaining lines, values ahead:

Row | EC50 [nM] | Compound
7 | 60 to 600 | COc1c(N2CCN(Cc3ccc(-n4c(-c5cccnc5N)nc5ccc(-c6ccccc6)nc54)cc3)C[C@H]2C)c(=O)c1=O [Example 67, (R)-3-(4-(4-(2-(2-aminopyridin-3-yl)-5-phenyl-3H-imidazo[4,5-b]pyridin-3-yl)benzyl)-2-methylpiperazin-1-yl)-4-methoxycyclobut-3-ene-1,2-dione]
8 | 60 to 600 | COc1c(N2C3CCC2CN(Cc2ccc(-n4c(-c5cccnc5N)nc5ccc(-c6ccccc6)nc54)cc2)C3)c(=O)c1=O [Example 72, 3-(3-(4-(2-(2-aminopyridin-3-yl)-5-phenyl-3H-imidazo[4,5-b]pyridin-3-yl)benzyl)-3,8-diazabicyclo[3.2.1]octan-8-yl)-4-methoxycyclobut-3-ene-1,2-dione]
9 | 60 to 600 | COc1c(NC2CCCCN(Cc3ccc(-n4c(-c5cccnc5N)nc5ccc(-c6ccccc6)nc54)cc3)C2)c(=O)c1=O (stereo not shown) [Example 74, 3-((1-(4-(2-(2-aminopyridin-3-yl)-5-phenyl-3H-imidazo[4,5-b]pyridin-3-yl)benzyl)azepan-3-yl)amino)-4-methoxycyclobut-3-ene-1,2-dione]
10 | 60 to 600 | COc1c(N2CCN(Cc3ccc(-n4c(-c5cccnc5N)nc5ccc(-c6ccccc6)nc54)cc3)C[C@@H]2CO)c(=O)c1=O [Example 79, (R)-3-(4-(4-(2-(2-aminopyridin-3-yl)-5-phenyl-3H-imidazo[4,5-b]pyridin-3-yl)benzyl)-2-(hydroxymethyl)piperazin-1-yl)-4-methoxycyclobut-3-ene-1,2-dione]
11 | 60 to 600 | COc1c(N2CCN(Cc3ccc(-n4c(-c5cccnc5N)nc5ccc(-c6ccccc6)nc54)cc3)C[C@H]2CO)c(=O)c1=O [Example 80, (S)-3-(4-(4-(2-(2-aminopyridin-3-yl)-5-phenyl-3H-imidazo[4,5-b]pyridin-3-yl)benzyl)-2-(hydroxymethyl)piperazin-1-yl)-4-methoxycyclobut-3-ene-1,2-dione]
12 | 60 to 600 | Nc1ncccc1-c1nc2ccc(-c3ccccc3)nc2n1-c1ccc(CN2CCC(N3CCCOc4c3c(=O)c4=O)C2)cc1 (stereo not shown) [Example 82, 6-(1-(4-(2-(2-aminopyridin-3-yl)-5-phenyl-3H-imidazo[4,5-b]pyridin-3-yl)benzyl)pyrrolidin-3-yl)-2-oxa-6-azabicyclo[5.2.0]non-1(7)-ene-8,9-dione]
13 | > 600 | Nc1ncccc1-c1nc2ccc(-c3ccccc3)nc2n1-c1ccc(CN2CCC(N3CCCOc4c3c(=O)c4=O)CC2)cc1 [Example 84, 6-(1-(4-(2-(2-aminopyridin-3-yl)-5-phenyl-3H-imidazo[4,5-b]pyridin-3-yl)benzyl)piperidin-4-yl)-2-oxa-6-azabicyclo[5.2.0]non-1(7)-ene-8,9-dione]
14 | 60 to 600 | Nc1ncccc1-c1nc2ccc(-c3ccccc3)nc2n1-c1ccc(CN2CCC(N3CCCSc4c3c(=O)c4=O)CC2)cc1 [Example 85, 6-(1-(4-(2-(2-aminopyridin-3-yl)-5-phenyl-3H-imidazo[4,5-b]pyridin-3-yl)benzyl)piperidin-4-yl)-2-thia-6-azabicyclo[5.2.0]non-1(7)-ene-8,9-dione]
15 | > 600 | Nc1ncccc1-c1nc2ccc(-c3ccccc3)nc2n1-c1ccc(CN2CCN3c4c(c(=O)c4=O)OCC[C@H]3C2)cc1 [Example 89, (S)-7-(4-(2-(2-aminopyridin-3-yl)-5-phenyl-3H-imidazo[4,5-b]pyridin-3-yl)benzyl)-5,5a,6,7,8,9-hexahydro-4H-cyclobuta[b]pyrazino[1,2-d][1,4]oxazepine-1,2-dione]

same assay, conditions: read-out: NanoBRET AKT1E17K EC50; HEK-293 cells transfected with NanoLuc-AKT E17K; competitive displacement of NanoBRET tracer; 2 hr equilibration; 10-point 3-fold dilution

Row | Compound | EC50 [nM]
16 | COc1c(N2CC[C@]3(CCN(Cc4ccc(-n5c(-c6cccnc6N)nc6ccc(-c7ccccc7)nc65)cc4)C3)C2)c(=O)c1=O [Example 66, (S)-3-(7-(4-(2-(2-aminopyridin-3-yl)-5-phenyl-3H-imidazo[4,5-b]pyridin-3-yl)benzyl)-2,7-diazaspiro[4.4]nonan-2-yl)-4-methoxycyclobut-3-ene-1,2-dione] | < 15
17 | COc1c(N2CC3CCC(C2)N3Cc2ccc(-n3c(-c4cccnc4N)nc4ccc(-c5ccccc5)nc43)cc2)c(=O)c1=O [Example 71, 3-(8-(4-(2-(2-aminopyridin-3-yl)-5-phenyl-3H-imidazo[4,5-b]pyridin-3-yl)benzyl)-3,8-diazabicyclo[3.2.1]octan-3-yl)-4-methoxycyclobut-3-ene-1,2-dione] | < 15
18 | COc1c(N2CCC(OCc3ccc(-n4c(-c5cccnc5N)nc5ccc(-c6ccccc6)nc54)cc3)CC2)c(=O)c1=O [Example 78, 3-(4-((4-(2-(2-aminopyridin-3-yl)-5-phenyl-3H-imidazo[4,5-b]pyridin-3-yl)benzyl)oxy)piperidin-1-yl)-4-methoxycyclobut-3-ene-1,2-dione] | < 15
19 | COc1c(NN2CCN(Cc3ccc(-n4c(-c5cccnc5N)nc5ccc(-c6ccccc6)nc54)cc3)CC2)c(=O)c1=O [Example 83, 3-((4-(4-(2-(2-aminopyridin-3-yl)-5-phenyl-3H-imidazo[4,5-b]pyridin-3-yl)benzyl)piperazin-1-yl)amino)-4-methoxycyclobut-3-ene-1,2-dione] | < 15
20 | CSc1c(N2C[C@H]3CN(Cc4ccc(-n5c(-c6cccnc6N)nc6ccc(-c7ccccc7)nc65)cc4)C[C@H]3C2)c(=O)c1=O [Example 87, 3-((3aR,6aS)-5-(4-(2-(2-aminopyridin-3-yl)-5-phenyl-3H-imidazo[4,5-b]pyridin-3-yl)benzyl)hexahydropyrrolo[3,4-c]pyrrol-2(1H)-yl)-4-(methylthio)cyclobut-3-ene-1,2-dione] | < 15
21 | CCSc1c(N2C[C@H]3CN(Cc4ccc(-n5c(-c6cccnc6N)nc6ccc(-c7ccccc7)nc65)cc4)C[C@H]3C2)c(=O)c1=O [Example 88, 3-((3aR,6aS)-5-(4-(2-(2-aminopyridin-3-yl)-5-phenyl-3H-imidazo[4,5-b]pyridin-3-yl)benzyl)hexahydropyrrolo[3,4-c]pyrrol-2(1H)-yl)-4-(ethylthio)cyclobut-3-ene-1,2-dione] | < 15

Other lines, results leading:

Row | EC50 [nM] | Compound
22 | < 15 | COc1c(NC2CCCN(Cc3ccc(-n4c(-c5cccnc5N)nc5ccc(-c6ccccc6)nc54)cc3)CC2)c(=O)c1=O (stereo not shown) [Example 73, 3-((1-(4-(2-(2-aminopyridin-3-yl)-5-phenyl-3H-imidazo[4,5-b]pyridin-3-yl)benzyl)azepan-4-yl)amino)-4-methoxycyclobut-3-ene-1,2-dione]
23 | < 15 | COc1c(N2C[C@@H]3C[C@H]2CN3Cc2ccc(-n3c(-c4cccnc4N)nc4ccc(-c5ccccc5)nc43)cc2)c(=O)c1=O [Example 75, 3-((1S,4S)-5-(4-(2-(2-aminopyridin-3-yl)-5-phenyl-3H-imidazo[4,5-b]pyridin-3-yl)benzyl)-2,5-diazabicyclo[2.2.1]heptan-2-y1)-4-methoxycyclobut-3-ene-1,2-dione]
24 | < 15 | COc1c(N2C[C@H]3C[C@@H]2CN3Cc2ccc(-n3c(-c4cccnc4N)nc4ccc(-c5ccccc5)nc43)cc2)c(=O)c1=O [Example 76, 3-((1R,4R)-5-(4-(2-(2-aminopyridin-3-yl)-5-phenyl-3H-imidazo[4,5-b]pyridin-3-yl)benzyl)-2,5-diazabicyclo[2.2.1]heptan-2-yl)-4-methoxycyclobut-3-ene-1,2-dione]
25 | < 15 | COc1c(N(C)[C@H]2CCN(Cc3ccc(-n4c(-c5cccnc5N)nc5ccc(-c6ccccc6)nc54)cc3)C2)c(=O)c1=O [Example 81, (S)-3-((1-(4-(2-(2-aminopyridin-3-yl)-5-phenyl-3H-imidazo[4,5-b]pyridin-3-yl)benzyl)pyrrolidin-3-yl)(methyl)amino)-4-methoxycyclobut-3-ene-1,2-dione]
